Measured values: ChEMBL document CHEMBL4130347, “Molecular topology: A new strategy for antimicrobial resistance control” (2017)
Values after ≈ are worked out from the molar mass of the structure shown. Active and inactive are the calls of the source. The rule behind the calls is not given here.

How the values were obtained:
Staphylococcus aureus [1] = test: Antibacterial activity against methicillin-susceptible Staphylococcus aureus ATCC 25923 by microdilution method; assay type: functional
Staphylococcus aureus [2] = test: Antibacterial activity against methicillin-resistant Staphylococcus aureus ATCC 33591 by microdilution method; assay type: functional
Escherichia coli = test: Antibacterial activity against Escherichia coli ATCC 25922 by microdilution method; assay type: functional, organism-based
Bacteria [3] = test: Inhibition of bacterial RecA expressed in Escherichia coli ATCC 25922 assessed as decrease in SOS induction at 50 uM after 8 hrs in presence of 0.25 times MIC of ciprofloxacin by fluorescence assay relative to control
Bacteria [4] = test: Inhibition of bacterial RecA expressed in Escherichia coli ATCC 25922 harboring GyrA Ser83Leu mutant assessed as decrease in SOS induction at 50 uM after 8 hrs in presence of 0.25 times MIC of ciprofloxacin by fluorescence assay relative to control
Bacteria [5] = test: Inhibition of bacterial RecA expressed in Escherichia coli ATCC 25922 harboring GyrA Ser83Leu mutant/ParC Ser80Arg mutant assessed as decrease in SOS induction at 50 uM after 8 hrs in presence of 0.25 times MIC of ciprofloxacin by fluorescence assay relative to control
Bacteria [6] = test: (§1) Inhibition of bacterial RecA expressed in Escherichia coli ATCC 25922 harboring GyrA Ser83Leu mutant/ParC Ser80Arg mutant/GyrA Asp87Asn mutant assessed as decrease in SOS induction at 50 uM after 8 hrs in presence of 0.25 times MIC of ciprofloxacin by fluorescence assay relative to control
Bacteria [7] = test: as §1, with “Asp87Asn mutant/marR deletion” for “Asp87Asn”
[8] = test system: Staphylococcus epidermidis; test: Antibacterial activity against Staphylococcus epidermidis ATCC 12228 by microdilution method; assay type: functional, organism-based
Enterococcus faecalis = test: Antibacterial activity against Enterococcus faecalis ATCC 51299 by microdilution method; assay type: functional
Staphylococcus aureus [9] = test: Antibacterial activity against methicillin-resistant Staphylococcus aureus ATCC 33591 assessed as decrease in levels of viable bacteria at 2 times MIC after 4 hrs by time-kill assay; assay type: functional
Staphylococcus aureus [10] = test: Antibacterial activity against methicillin-resistant Staphylococcus aureus ATCC 33591 assessed as decrease in levels of viable bacteria at 2 times MIC after 8 hrs by time-kill assay; assay type: functional
Staphylococcus aureus [11] = test: Antibacterial activity against methicillin-resistant Staphylococcus aureus ATCC 33591 assessed as decrease in levels of viable bacteria at 2 times MIC after 24 hrs by time-kill assay; assay type: functional
Staphylococcus aureus [12] = test: Antibacterial activity against methicillin-resistant Staphylococcus aureus ATCC 33591 assessed as growth inhibition after 48 hrs; assay type: functional, organism-based

SMILES | MIC (Staphylococcus aureus [1]) | MIC (Staphylococcus aureus [2]) | Activity (Escherichia coli) | inhibition (Bacteria [3]) | inhibition (Bacteria [4]) | inhibition (Bacteria [5]) | inhibition (Bacteria [6]) | inhibition (Bacteria [7]) | Activity [8] | MIC (Enterococcus faecalis) | Activity (Enterococcus faecalis) | Activity (Staphylococcus aureus [9]) | Activity (Staphylococcus aureus [10]) | Activity (Staphylococcus aureus [11]) | growth inhibition (GI) (Staphylococcus aureus [12])
O=C(O)CSc1cc(NS(=O)(=O)c2ccc(Cl)cc2)c2ccccc2c1O | 16 to 128 µg/mL (≈ 37.7 to 302 µM) | 16 to 128 µg/mL (≈ 37.7 to 302 µM) | Active | 31 to 47% | 31 to 47% | 31 to 47% | 31 to 47% | 31 to 47% |  |  |  |  |  |  | 
O=C(CCN1CCOCC1)NNC(=O)c1ccc([N+](=O)[O-])cc1[N+](=O)[O-] | 16 to 128 µg/mL (≈ 43.6 to 348 µM) | 16 to 128 µg/mL (≈ 43.6 to 348 µM) | inactive |  |  |  |  |  | Active | 32 to 128 µg/mL (≈ 87.1 to 348 µM) |  |  |  |  | 
CCN(CC)CCN1C(=O)C(O)=C(C(=O)c2ccc(OC)cc2)C1c1ccc(C)o1 (configuration not stated) | 16 to 128 µg/mL (≈ 38.8 to 310 µM) | 16 to 128 µg/mL (≈ 38.8 to 310 µM) | inactive |  |  |  |  |  | Active |  | inactive | 1.5 deltalog10CFU/ml | 2.5 deltalog10CFU/ml | 4 deltalog10CFU/ml | Dose-dependent effect
COc1cc(C(=O)OCCCn2c(=O)c3c(nc(N4CCN(CCO)CC4)n3C)n(C)c2=O)cc(O)c1OC | 16 to 128 µg/mL (≈ 29.3 to 234 µM) | 16 to 128 µg/mL (≈ 29.3 to 234 µM) | inactive |  |  |  |  |  | Active |  | Active |  |  |  | 
NNc1ccc(S(=O)(=O)N2CCOCC2)cc1[N+](=O)[O-] | 16 to 128 µg/mL (≈ 52.9 to 423 µM) | 16 to 128 µg/mL (≈ 52.9 to 423 µM) | inactive |  |  |  |  |  | Active |  | Active |  |  |  | 
COc1cc(C(=O)OCCn2c(N3CCN(CCO)CC3)nc3c2c(=O)n(C)c(=O)n3C)cc(OC)c1OC | 16 to 128 µg/mL (≈ 29.3 to 234 µM) | 16 to 128 µg/mL (≈ 29.3 to 234 µM) | inactive |  |  |  |  |  | Active | 32 to 128 µg/mL (≈ 58.5 to 234 µM) |  |  |  |  | 
COCCOC(=O)C1=C(C)OC(N)=C(C#N)C12C(=O)N(CC(=O)OC)c1ccccc12 (configuration not stated) | 16 to 128 µg/mL (≈ 37.4 to 299 µM) | 16 to 128 µg/mL (≈ 37.4 to 299 µM) | inactive |  |  |  |  |  | Active | 32 to 128 µg/mL (≈ 74.9 to 299 µM) |  |  |  |  | 
